Experimental data as given in ChEMBL document CHEMBL1143332, “Syntheses of tricyclic pyrones and pyridinones and protection of Abeta-peptide induced MC65 neuronal cell death” (Bioorg Med Chem Lett, 2009).
Activity calls are given as the source filed them. The calls are words filed in the database; no cut-off is given here.

system: not listed separately; experiment: (§1) Cell protective activity in human MC65 cells assessed as protection against amyloid beta precursor protein C99-induced neuronal cell death after 3 days by MTT assay; assay type: functional, cell-based; conditions: 72 h

Compared with `Cc1cc2c(c(=O)o1)C=C1CC[C@H]([C@@H](C)Cn3cnc(N)c4ncnc3-4)C[C@@H]1O2`, `Cc1cc2c(c(=O)o1)C=C1CC[C@H]([C@@H](C)Cn3cnc4c(N)ncnc43)C[C@@H]1O2` is 9.7-fold higher in EC50: 0.31 µM for the first, 3 µM for the second. The first is the more potent here.

Going from `C=C(C)[C@H]1CCC2=Cc3c(cc(C)n(Cc4ccc(OC)cc4)c3=O)O[C@H]2C1` to `COc1ccc(Cn2c(C)cc3c(c2=O)C=C2CC[C@H]([C@@H](C)Cn4cnc(N)c5ncnc4-5)C[C@@H]2O3)cc1`, the EC50 falls from 1.25 µM to 0.35 µM (3.6-fold).

Compared with `Cc1cc2c(c(=O)o1)C=C1CC[C@H]([C@@H](C)CSc3ncccn3)C[C@@H]1O2`, `Cc1cc2c(c(=O)o1)C=C1CC[C@H]([C@@H](C)COc3nccc(N)n3)C[C@@H]1O2` is 2.1-fold higher in EC50: 1.38 µM for the first, 2.94 µM for the second. The first is the more potent here.

`Cc1cc2c(c(=O)o1)C=C1CC[C@H]([C@@H](C)Cn3cc(C)c(=O)[nH]c3=O)C[C@@H]1O2` and `Cc1cc2c(c(=O)o1)C=C1CC[C@H]([C@@H](C)Cn3cc(C#N)c(N)n3)C[C@@H]1O2` are within 1.5-fold of each other in EC50: 6.92 µM for the first, 8.3 µM for the second.

`Cc1cc2c(c(=O)o1)C=C1CC[C@H]([C@@H](C)Cn3cnc4cnc(N)nc43)C[C@@H]1O2` and `Cc1cc2c(c(=O)o1)C=C1CC[C@H]([C@@H](C)Cn3cnc4c(Cl)ncnc43)C[C@@H]1O2` are within 1.5-fold of each other in EC50: 0.86 µM for the first, 0.93 µM for the second.

`C=C(Cn1cnc(N)c2ncnc1-2)[C@H]1CCC2=Cc3c(cc(C)oc3=O)O[C@H]2C1` and `C=C(C)[C@@H]1CCc2cnc3cc(C)oc(=O)c3c2C1` are within 1.5-fold of each other in EC50: 1.95 µM for the first, 2.49 µM for the second.

system: neuronal; experiment: as §1; assay type: functional, cell-based; conditions: not given

In the case of `Cc1cc2c(c(=O)o1)C=C1CC[C@H]([C@@H](C)Cn3ccc(N)nc3=O)C[C@@H]1O2`, the Activity is reported as “inactive”.
For `C=C(C)[C@H]1CCc2cc3c(=O)oc(C)cc3nc2C1`, the Activity was “inactive”.
With `CC(=O)Nc1nc2c(ncn2C[C@H](C)[C@H]2CCC3=Cc4c(cc(C)oc4=O)O[C@H]3C2)c(=O)[nH]1` the Activity was “inactive”.
